Reference: patent publication US7138541B2, “Surface coating agents” (SurModics, Inc., priority 1999, dated 2006)

Test system: coagulation cascade (intrinsic and common pathways of coagulation)
Assay: Partial thromboplastin time (PTT) test of coating agents
Type: biochemical
Conditions: for Extension of control PTT (in words): versus the respective solvent control, both concentrations tested
Protocol: A useful test in determining the hemocompatibility of a reagent is the partial thromboplastin time (PTT) test. The PTT is a test of the intrinsic (factors VIII, IX, XI, and XII) and common (fibrinogen, prothrombin, factors V and X) pathways of coagulation. A mixture of plasma and phospholipid platelet substitute (rabbit brain cephalin) is recalcified and the time required for the appearance of fibrin strands measured.
The PTT was tested to determine whether Compound I or Compound II have the ability to extend the control PTT. A test tube of rabbit brain cephalin (Sigma #RBC) in 0.85% NaCl and a test tube of 0.02 M CaCl2 was brought to 37° C. in a water bath. Dade Ci-trol coagulation control lyophilized plasma (Dade International, Inc., product no. 34224-10) was reconstituted in sterile deionized water. In 10×75 mm glass test tubes, 100 μl reconstituted plasma and 100 μl RBC were mixed and incubated at 37° C. in a water bath for 5 minutes. Next, 50 μl of sample (deionized water, a photocrosslinkable polyvinylpyrrolidone (available from SurModics, Inc., product no. PVO5), or Compound I or II) was added and mixed. While simultaneously starting a stop watch, 100 μl of 0.02 M CaCl2 was added to initiate the clotting cascade. After 40 seconds had passed, the test tubes were shaken lightly, observed for fibrin formation, and the number of seconds was recorded.
All samples were tested in duplicate. The appropriate control PTT, depending upon what solvent in which the reagent was dissolved, was subtracted from the average PTT for the reagent to give the time the control PTT was extended.

| Compound | Extension of 50% IPA control PTT (higher of the two final concentrations tested, 50% IPA control) | Extension of control PTT (in words) |
| --- | --- | --- |
| O=C(c1ccccc1)c1ccc(COc2cc(S(=O)(=O)[O-])c(OCc3ccc(C(=O)c4ccccc4)cc3)cc2S(=O)(=O)[O-])cc1.[K+].[K+] [Compound II, 2,5-bis(4-benzoylphenylmethyleneoxy) benzene-1,4-disulfonic acid dipotassium salt] | 1 h | considerably extend |
| O=C(c1ccccc1)c1ccc(COc2cc(S(=O)(=O)[O-])cc(S(=O)(=O)[O-])c2OCc2ccc(C(=O)c3ccccc3)cc2)cc1.[K+].[K+] [Compound I, 4,5-bis(4-benzoylphenylmethyleneoxy) benzene-1,3-disulfonic acid disodium salt] |  | considerably extend |
